Key:
renal medullary PRR = renal medullary PRR (Rattus norvegicus, UniProt Q6AXS4); experiment: AngII-induced hypertension in uninephrectomized SD rats, telemetry MAP; assay type: in vivo; conditions: AngII 100 ng/kg/min s.c. alone or with intramedullary PRO20 120 μg/kg/d; day 0 MAP 108+5.8
Experimental: FIGS. 26A, 26B, 26C, 26D, and 26E show the characterization of PRO20 and examination of its effect on AngII-induced hypertension. Comparison of PRO20 (B and D) and the HRP (A and C) in inhibiting prorenin-induced signaling. Primary rat IMCD cells were pretreated for 1 h with PRO20 (1.5 μM) or the HRP (2.0 μM) and then were exposed to 100 nM prorenin for 10 min. ERK1/2 phosphorylation was determined by immunoblotting. (E) Effect of intramedullary delivery of PRO20 on AngII-induced hypertension. Uninephrectomized SD rats were divided into the following three groups: (1) AngII, (2) AngII+IM PRO (intramedullary PRO20 infusion), and (3) AngII+IV PRO20 (intravenous PRO20 infusion). AngII was subcutaneously infused at 100 ng/kg/min via an osmotic mini-pump. IM PRO (PRO20 at 120 μg/kg/d) was performed via a catheter chronically implanted in the renal medulla. To control the spillover, IV PRO (PRO20 at 120 μg/kg/d) was performed via catheterization of jugular vein. Telemetry was performed to monitor mean arterial pressure (MAP) and it was turned on 4 h per day from 5:00 PM to 9:00 PM for 7 days. #p<0.01 vs. intravenous PRO20; *, p<0.05 vs. AngII alone. N=3-6 per group. Data are mean+SE. […]

α-ENaC = experiment: Renal ENaC expression in AngII-infused rats (immunoblotting, qRT-PCR); assay type: in vivo, rat; conditions: following AngII infusion
Experimental: FIGS. 28A, 28B, 28C, 28D, 28E, 28F, 28G and 28H show the effect of IMPRO on renal inner medullary ENaC expression during AngThinduced hypertension. The expression of the three subunits of ENaC (α-, β-, and γ-) in the inner medulla of control, AngII and AngII+IM RPO rats was determined by immunobotting (A-E) and qRT-PCR (F-H). N=6 per group. Data are mean+SE.
Renal tissues were lysed and subsequently sonicated in PBS that contained 1% Triton x-100, 250 μM phenylmethanesulfonyl fluoride (PMSF), 2 mM EDTA, and 5 mM dithiothrietol (DTT) (pH 7.5). Protein concentrations were determined by the use of Coomassie reagent. […] of protein for each sample was denatured in boiling water for 10 min, then separated by SDS-PAGE, and transferred onto nitrocellulose membranes. The blots were blocked 1 h with 5% nonfat dry milk in Tris-buffered saline (TBS), followed by incubation for overnight with primary antibody. […] The blots were quantitated by using Imagepro-plus. […]
Epithelial sodium channel (ENaC) is the major sodium channel on the apical membrane of the CD Immunoblotting and qRT-PCR analysis of renal ENaC expression was performed. […] In contrast, α-ENaC protein abundance in the cortex was unaffected. qRT-PCR detected 1.6-fold increase of α-ENaC mRNA expression in the inner medulla, which was abolished by IM PRO (FIG. 28F). […]

[1] = Plasma and urinary aldosterone in AngII-infused rats; assay type: in vivo, rat; conditions: following AngII infusion
Experimental: FIGS. 31A, B, and C show the role of PRR in AngII-induced aldosterone production in vivo and in vitro. Plasma aldosterone concentrations (A) and urinary aldosterone excretion (B) were determined in control, AngII, AngII+IM PRO20, and AngII+IV PRO20 rats. The direct action of PRO20 in aldosterone regulation was tested in primary culture of rat IMCD cells (C). For the in vitro study, the cells were exposed to vehicle, AngII, or AngII+PRO20 and the medium were assayed for aldosterone release. N=3-6 per group. Data are means±SE.
Under anesthesia, blood was collected puncturing vena cava, and plasma was recovered by centrifugation. At the end of experiments, animals were placed in metabolic cages for urine collections. The renal inner medulla was homogenized in 2.6 mM EDTA, 3.4 mM hydroxyquinoline, 5 mM ammonium acetate, 200 μM PMSF, and 0.256 μM dimercaprol. […] Renin activity in urine, tissue homogenates, and cell culture medium was determined by measurement of AngI generation using an ELISA kit and it was performed in the native condition, active renin content with excessive angiotensinogen, and total renin content with excessive angiotensinogen plus trypsinization as previously described. Aldosterone concentrations in plasma, urine, and cell culture medium were measured using a commercial ELISA kit (Cat#:10004377, Cayman Chemical). […]

Sequence of renal medullary PRR (Q6AXS4 18-350): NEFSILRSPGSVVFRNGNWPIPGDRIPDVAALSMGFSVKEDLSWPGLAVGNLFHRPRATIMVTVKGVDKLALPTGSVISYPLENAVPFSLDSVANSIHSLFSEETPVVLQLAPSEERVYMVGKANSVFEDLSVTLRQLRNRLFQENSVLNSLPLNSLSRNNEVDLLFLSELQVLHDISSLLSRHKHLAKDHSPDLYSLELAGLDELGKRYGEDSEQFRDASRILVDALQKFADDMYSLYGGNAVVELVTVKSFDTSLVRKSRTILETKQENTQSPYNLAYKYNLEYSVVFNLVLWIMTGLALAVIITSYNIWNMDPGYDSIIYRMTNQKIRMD

## Angiotensin II (DRVYIHPF; Angiotensin-2; UniProt P01019 25-32, looked up) [AngII]
Renal medullary PRR
  MAP on day 7: 164.7+6.2 mmHg
α-ENaC; immunoblotting
  increase in renal medullary α-ENaC protein abundance: 2.2 fold
α-ENaC; qRT-PCR
  increase of α-ENaC mRNA expression in the inner medulla: 1.6 fold
[1]
  increase in aldosterone levels in the plasma: 60%
  increase in aldosterone levels in the urine: 3.2 fold

From patent publication US9586995B2, “Compositions and methods of use for (pro)renin receptor” (University of Utah, priority 2012, dated 2017)
